Data taken from PMC8740163, “Voltage-Gated Sodium Channel Modulation by a New Spider Toxin Ssp1a Isolated From an Australian Theraphosid” (Frontiers in Pharmacology, 2021).

What was measured:
[1] = target: hNaV1.7 (Homo sapiens, UniProt Q15858); format: cell-based
[2] = test system: hNaV1.1, 1.2, 1.6, 1.7, 1.3; conditions: ref Gonçalves et al., 2018, cited from earlier work

hNaV1.7, sequence (Q07699 19-218): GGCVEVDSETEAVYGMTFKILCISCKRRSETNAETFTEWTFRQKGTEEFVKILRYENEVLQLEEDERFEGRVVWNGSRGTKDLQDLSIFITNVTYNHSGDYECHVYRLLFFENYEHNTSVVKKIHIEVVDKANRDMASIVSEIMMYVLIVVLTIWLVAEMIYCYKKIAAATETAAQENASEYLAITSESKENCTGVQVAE
hNaV1.7, sequence (Q15858 whole entry): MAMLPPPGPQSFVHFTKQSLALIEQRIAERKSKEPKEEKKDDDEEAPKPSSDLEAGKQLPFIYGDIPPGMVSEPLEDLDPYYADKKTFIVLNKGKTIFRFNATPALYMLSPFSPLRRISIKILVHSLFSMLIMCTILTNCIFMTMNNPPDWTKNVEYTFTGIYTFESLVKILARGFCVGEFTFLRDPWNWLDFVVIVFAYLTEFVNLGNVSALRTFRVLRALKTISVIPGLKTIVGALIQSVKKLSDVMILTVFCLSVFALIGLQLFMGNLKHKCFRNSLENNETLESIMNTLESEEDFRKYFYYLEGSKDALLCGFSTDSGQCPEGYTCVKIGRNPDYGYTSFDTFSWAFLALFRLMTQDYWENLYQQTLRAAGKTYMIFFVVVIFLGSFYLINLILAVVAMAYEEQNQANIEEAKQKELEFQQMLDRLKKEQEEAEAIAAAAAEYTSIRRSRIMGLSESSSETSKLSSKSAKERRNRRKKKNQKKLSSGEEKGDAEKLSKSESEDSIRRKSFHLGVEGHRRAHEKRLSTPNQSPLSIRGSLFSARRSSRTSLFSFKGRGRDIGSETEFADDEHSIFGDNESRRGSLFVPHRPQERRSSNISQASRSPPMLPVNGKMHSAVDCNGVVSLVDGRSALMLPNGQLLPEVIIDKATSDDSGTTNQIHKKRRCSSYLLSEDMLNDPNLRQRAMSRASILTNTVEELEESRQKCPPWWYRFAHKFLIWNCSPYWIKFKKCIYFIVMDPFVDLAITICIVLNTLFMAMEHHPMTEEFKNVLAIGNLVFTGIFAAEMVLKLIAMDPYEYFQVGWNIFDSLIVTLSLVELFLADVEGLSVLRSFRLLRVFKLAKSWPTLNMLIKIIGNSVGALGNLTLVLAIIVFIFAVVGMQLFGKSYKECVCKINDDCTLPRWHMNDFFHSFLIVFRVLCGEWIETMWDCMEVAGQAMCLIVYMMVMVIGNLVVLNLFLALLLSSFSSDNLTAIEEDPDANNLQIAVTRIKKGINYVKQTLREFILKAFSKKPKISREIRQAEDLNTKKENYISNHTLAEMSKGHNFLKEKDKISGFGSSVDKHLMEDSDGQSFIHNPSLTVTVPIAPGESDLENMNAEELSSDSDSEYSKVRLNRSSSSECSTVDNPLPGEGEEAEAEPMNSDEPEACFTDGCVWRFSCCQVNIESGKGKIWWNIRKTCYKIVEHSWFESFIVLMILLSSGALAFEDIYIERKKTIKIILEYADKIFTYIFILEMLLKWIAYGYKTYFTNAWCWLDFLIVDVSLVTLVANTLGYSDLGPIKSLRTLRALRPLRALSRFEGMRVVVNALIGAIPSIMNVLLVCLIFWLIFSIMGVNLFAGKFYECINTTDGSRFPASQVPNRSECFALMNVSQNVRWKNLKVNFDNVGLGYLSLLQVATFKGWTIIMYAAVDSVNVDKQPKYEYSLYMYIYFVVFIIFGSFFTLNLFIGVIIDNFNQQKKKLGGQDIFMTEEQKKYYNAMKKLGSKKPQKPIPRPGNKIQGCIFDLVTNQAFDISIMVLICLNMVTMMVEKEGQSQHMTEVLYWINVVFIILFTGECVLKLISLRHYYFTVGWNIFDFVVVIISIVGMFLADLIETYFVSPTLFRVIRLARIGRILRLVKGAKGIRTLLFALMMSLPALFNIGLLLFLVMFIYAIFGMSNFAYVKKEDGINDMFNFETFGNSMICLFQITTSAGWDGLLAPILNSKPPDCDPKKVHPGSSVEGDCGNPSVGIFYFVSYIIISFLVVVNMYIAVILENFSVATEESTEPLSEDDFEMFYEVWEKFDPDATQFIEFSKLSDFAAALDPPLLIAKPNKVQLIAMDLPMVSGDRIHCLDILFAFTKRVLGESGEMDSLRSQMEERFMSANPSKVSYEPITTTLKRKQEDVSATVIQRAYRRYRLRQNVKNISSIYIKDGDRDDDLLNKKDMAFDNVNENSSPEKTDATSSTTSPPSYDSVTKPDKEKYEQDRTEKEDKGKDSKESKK

Row | Compound | inhibition of veratridine + OD1 activated responses [1] | IC50 ([2]; range over hNaV1.1, 1.2, 1.6, 1.7, 1.3, read-out: IC50 at five hNaV subtypes) [nM] | rank order of potency [2]
1 | NC1=N[C@H](O)[C@H]2[C@H]3O[C@]4(O)O[C@@H]([C@@H](O)[C@@]2(N1)[C@@H]4O)[C@]3(O)CO [Tetrodotoxin (TTX), Tetrodotoxin] | fully inhibited | – | –
2 | HwTx-IV: NaSpTx1 family spider toxin, 40% sequence identity with Ssp1a | – | 41 to 190 | hNaV1.1 > 1.2 > 1.6 > 1.7 > 1.3
